One data set has as its target IMPα/β1:C (Mus musculus, UniProt P52293). Type of data set: binding.
For data set [1], the system named is GFP-T-ag nuclear accumulation in HeLa cells. Type of data set: cell-based.
Data set [2] deals with C-GFP nuclear accumulation in HeLa cells. Type of data set: cell-based.
The next data set concerns VEEV-TC83luc. Type of data set: cell-based, Venezuelan equine encephalitis virus.
The test system of data set [3] is C-GFP nuclear import in HeLa cells. The data set is classed as cell-based.
The subject of data set [4] is IMPα/β1 binding to HIV-1 integrase. The note with it: cited from earlier work.
Data set [5] concerns VEEV C localization in infected Vero cells. Type of data set: cell-based.
The next data set deals with HIV-1. The note with it: cited from earlier work.
A further data set has as its system VEEV. The note with it: cited from earlier work.
A further data set deals with TC83-WT. Type of data set: cell-based, Venezuelan equine encephalitis virus.

Usually IC50 stands for the point on the concentration scale where inhibition reaches its midpoint. The EC50 is the concentration that produces a half-maximal response. A low value points to higher potency in that assay. Usually CC50 stands for the concentration that lowers cell viability or growth by half. Low readings indicate harm at low concentration, high ones better tolerance by the cells.

On to `O=C(c1cc(C(=O)N2CCN(c3cccc(Cl)c3)CC2)cc(C(=O)N2CCN(c3cccc(Cl)c3)CC2)c1)N1CCN(c2cccc(Cl)c2)CC1` [AK-968/15362127], for which, at IMPα/β1:C, half-maximal inhibition (IC50) required 32 ± 4.6 µM.

As to `CC(=O)Nc1ccc(S(=O)(=O)Nc2ccc(C3(c4ccc(NS(=O)(=O)c5ccc(NC(C)=O)cc5)cc4)c4ccccc4-c4ccccc43)cc2)cc1` [AN-329/40863801], the “nuclear accumulation of GFP-T-ag” value in data set [1] is reported as “no significant effect”. Further, in [2], the “nuclear accumulation of C-GFP” value is listed as “no significant effect”. Moreover, the EC50 in the data set on VEEV-TC83luc is more than 50 µM. Further, in data set [3], the “initial rate of C nuclear import” value was “significantly reduced” and the “maximal recovery of nuclear fluorescence (Fn(rec) max), lower than in DMSO alone treated cells” value is reported as approximately 30%. Also, the CC50 with Vero cells was more than 100 µM.

Consider `CC#C[C@]1(O)CC[C@H]2[C@@H]3CCC4=CC(=O)CCC4=C3[C@@H](c3ccc(N(C)C)cc3)C[C@@]21C` [Mifepristone], for which the “inhibition of IMPα/β1 binding to HIV-1 integrase” value in data set [4] was “inhibitors of IMPα/β1 binding to HIV-1 integrase”. Moreover, the “nuclear C staining in infected cells” value in data set [5] was “reduced nuclear C staining”. The anti-HIV-1 activity entry in the data set on HIV-1 is reported as “anti-HIV-1 activity”. The “activity against VEEV” value in the data set with VEEV is listed as “active against VEEV”. Moreover, in the data set with TC83-WT, the “titer of wild-type TC83” value is listed as “significantly reduced the titer”.

Regarding Ivermectin, in [4], the “inhibition of IMPα/β1 binding to HIV-1 integrase” value is on record as “inhibitors of IMPα/β1 binding to HIV-1 integrase”. Moreover, the anti-HIV-1 activity result in the data set with HIV-1 is “anti-HIV-1 activity”. In data set [1], the “nuclear accumulation of GFP-T-ag” value is listed as “reduced nuclear accumulation of both constructs”. Further, the “activity against VEEV” value in the data set with VEEV is recorded as “active against VEEV”. The “nuclear accumulation of C-GFP” value in [2] is “reduced nuclear accumulation of both constructs”. Besides, the “titer of wild-type TC83” value with TC83-WT is given as “reduced the titer to a lesser extent”.
